Test results as given in patent US20010044384A1, “Method of preventing premature fruit drop from apple trees” (priority 1998, published 2001).

Key:
Format in all cases: in vivo
McIntosh® Apple trees [1] = experiment: Example 2: cyclanilide vs ReTain vs untreated on apple trees, results just before harvest; settings: for % cumulative fruit dropped from tree / Fruit Starch Index: just before harvest
Source text: An orchard of McIntosh® Apple trees at a stage where the apples were approximately 4.5 cm in diameter were sprayed with an aqueous suspension comprising cyclanilide and Regulaid®, a non-ionic surfactant (0.25% v/v) at several rates. About two months later, the following observations were made:
The process of Example 1 was repeated using an aqueous suspension comprising cyclanilide and a surfactant using an application rate of cyclanilide of 50 g/ha. As a comparison, ReTain® ([S]-trans-2-amino-4-(2-aminoethoxy)-3-butenoic acid) was applied according to commercially acceptable methods on another plot of trees and another plot of trees were left untreated.
Just before harvest, the following results were obtained: […]

McIntosh® Apple trees [2] = experiment: Example 1: spraying McIntosh apple trees with cyclanilide suspension, observations about two months later; settings: about two months after spraying; for % fruit dropped from tree: with Regulaid 0.25% v/v
Source text: An orchard of McIntosh® Apple trees at a stage where the apples were approximately 4.5 cm in diameter were sprayed with an aqueous suspension comprising cyclanilide and Regulaid®, a non-ionic surfactant (0.25% v/v) at several rates. About two months later, the following observations were made: […]

apple trees = experiment: General findings on apples treated by the method of the invention (description)
[3] = compared with untreated fruit and fruit treated by prior art compounds

SMILES	% cumulative fruit dropped from tree (McIntosh® Apple trees [1]; 125 g/ha of ingredient) [%]	Fruit Starch Index (McIntosh® Apple trees [1]; 125 g/ha of ingredient)	BRIX index (soluble solids) (McIntosh® Apple trees [2]; cyclanilide 50 g/ha)	Fruit Starch Index (McIntosh® Apple trees [2]; cyclanilide 50 g/ha)	% fruit dropped from tree (McIntosh® Apple trees [2]; cyclanilide 50 g/ha) [%]	BRIX index (soluble solids) (McIntosh® Apple trees [2]; cyclanilide 100 g/ha)	Fruit Starch Index (McIntosh® Apple trees [2]; cyclanilide 100 g/ha)	% fruit dropped from tree (McIntosh® Apple trees [2]; cyclanilide 100 g/ha) [%]	BRIX index (soluble solids) (McIntosh® Apple trees [2]; cyclanilide 200 g/ha)	Fruit Starch Index (McIntosh® Apple trees [2]; cyclanilide 200 g/ha)	% fruit dropped from tree (McIntosh® Apple trees [2]; cyclanilide 200 g/ha) [%]	% cumulative fruit dropped from tree (McIntosh® Apple trees [1]; 50 g/ha of ingredient) [%]	Fruit Starch Index (McIntosh® Apple trees [1]; 50 g/ha of ingredient)	color of the fruit (McIntosh® Apple trees [1]; cyclanilide 50 g/ha, compared with ReTain-treated fruit)	overall quality of fruit (McIntosh® Apple trees [1]; cyclanilide 50 g/ha, compared with untreated fruit and ReTain-treated fruit)	starch content of apples (apple trees; compared with apples not treated)	color characteristic of apples (apple trees; compared with fruit treated by prior art compounds)	content of soluble solids as measured by the BRIX index (apple trees; [3])	firmness of apples (apple trees; [3])	amount of fruit drop as a function of the amount applied (apple trees; general statement)
NCCO/C=C/[C@H](N)C(=O)O (stereo in doubt) [ReTain ®, [S]-trans-2-amino-4-(2-aminoethoxy)-3-butenoic acid, reference compound]	68.2	5.4																		
O=C(O)C1(C(=O)Nc2ccc(Cl)cc2Cl)CC1 [cyclanilide, 1-(2,4-dichloroanilinocarbonyl)cyclopropane carboxylic acid]			13	5.1	6	12.9	5.0	9.8	13.0	4.9	13.5	47.4	5.0	better than that of the fruit treated by the prior art compound ReTain®	better than that of the untreated fruit and that obtained from treatment by the prior art compound ReTain®	lower starch content than apples not treated by the method of the invention	better color characteristic than fruit treated by prior art compounds	higher content of soluble solids than untreated fruit and than fruit treated by prior art compounds	greater firmness than untreated fruit and than fruit treated by prior art compounds	generally decreases as a function of the amount of cyclanilide applied
